Measurements as given in the supplement of paper PMC10307832.

How the values were obtained:
Assay in all cases: relative viability (nuclei count vs DMSO), 5 days (fraction); higher = more cells survive
[1] = compound: CS(=O)(=O)c1ccc(-c2cnc(N)c(C(=O)Nc3ccccc3)n2)cc1 [VE-821] + CC(=O)c1c(C)c2cnc(Nc3ccc(N4CCNCC4)cn3)nc2n(C2CCCC2)c1=O [Palbociclib] (partner 0.5 µM)
Summary of the method: (§1)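 Medians of duplicate plates are given as relative viability. That measure is the nuclei count in treated wells divided by the count in vehicle wells. Counts were taken on 4× images of lung cancer cell lines in 1536-well plates, 5 days after pin-tool dosing the day after seeding with one drug alone or a fixed anchor-drug dose plus five library-drug doses (not always all listed) in √10 steps.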

[2] = compound: CS(=O)(=O)c1ccc(-c2cnc(N)c(C(=O)Nc3ccccc3)n2)cc1 [VE-821] + N=C(N)NC(=N)NCCc1ccccc1 [Phenformin] (partner 250 µM)
Summary of the method: as §1

[3] = compound: CS(=O)(=O)c1ccc(C(=O)Nc2ccc(Cl)c(-c3ccccn3)c2)c(Cl)c1 [Vismodegib] + C[C@@H](Oc1cc(-c2cnn(C3CCNCC3)c2)cnc1N)c1c(Cl)ccc(F)c1Cl [Crizotinib] (partner 1 µM)
Summary of the method: as §1

[4] = compound: N#CC[C@H](C1CCCC1)n1cc(-c2ncnc3[nH]ccc23)cn1 [Ruxolitinib] + CC(C)C[C@H](NC(=O)[C@H](Cc1ccccc1)NC(=O)c1cnccn1)B(O)O [Bortezomib] (partner 0.002 µM)
Summary of the method: as §1

Cell Line | relative viability ([1]; first compound 0.08 µM) | relative viability ([1]; first compound 0.253 µM) | relative viability ([1]; first compound 0.8 µM) | relative viability ([1]; first compound 2.53 µM) | relative viability ([1]; first compound 8 µM) | relative viability ([2]; first compound 0.08 µM) | relative viability ([2]; first compound 0.253 µM) | relative viability ([2]; first compound 0.8 µM) | relative viability ([2]; first compound 2.53 µM) | relative viability ([2]; first compound 8 µM) | relative viability ([3]; first compound 0.08 µM) | relative viability ([3]; first compound 0.253 µM) | relative viability ([3]; first compound 0.8 µM) | relative viability ([3]; first compound 2.53 µM) | relative viability ([3]; first compound 8 µM) | relative viability ([4]; first compound 0.253 µM) | relative viability ([4]; first compound 0.8 µM) | relative viability ([4]; first compound 2.53 µM) | relative viability ([4]; first compound 8 µM) | relative viability ([4]; first compound 0.08 µM)
SW 900 | 0.549 | 0.52 | 0.46 | 0.542 | 0.36 | 0.575 | 0.555 | 0.425 | 0.711 | 0.572 |  |  |  |  |  |  |  |  |  | 
NCI-H358 | 0.13 | 0.14 | 0.134 | 0.135 | 0.133 | 0.386 | 0.311 | 0.352 | 0.373 | 0.281 | 0.596 | 0.479 | 0.546 | 0.551 | 0.579 |  |  |  |  | 
ChaGo-K-1 | 0.95 | 0.956 | 0.909 | 0.905 | 0.803 | 0.454 | 0.459 | 0.536 | 0.496 | 0.427 | 1.19 | 1.09 | 1.13 | 1.06 | 1.22 | 0.929 | 0.94 | 0.976 | 0.701 | 
NCI-H1755 | 0.429 | 0.437 | 0.423 | 0.363 | 0.424 | 0.632 | 0.601 | 0.546 | 0.615 | 0.527 | 0.817 | 0.842 | 0.964 | 0.839 | 0.859 | 1.04 | 1.03 | 0.853 | 0.658 | 0.984
LCLC-103H | 0.552 | 0.513 | 0.524 | 0.523 | 0.448 | 0.335 | 0.31 | 0.352 | 0.351 | 0.269 | 0.871 | 1.04 | 0.955 | 1.02 | 1.04 | 1.17 | 1.04 | 1.15 | 0.951 | 0.922
HCC-827 | 0.515 | 0.516 | 0.405 | 0.531 | 0.522 | 0.425 | 0.398 | 0.391 | 0.458 | 0.335 | 0.893 | 0.888 | 0.985 | 0.908 | 0.887 | 0.993 | 1.01 | 0.881 | 0.798 | 1.05
HCC-44 | 0.956 | 0.981 | 0.992 | 1.08 | 1.07 | 0.261 | 0.15 | 0.263 | 0.198 | 0.266 | 0.782 | 0.721 | 0.829 | 0.763 | 0.783 | 0.944 | 0.914 | 0.933 | 0.689 | 0.888
NCI-H727 | 0.737 | 0.726 | 0.618 | 0.638 | 0.659 | 0.503 | 0.552 | 0.547 | 0.537 | 0.385 | 0.733 | 0.771 | 0.576 | 0.938 | 0.857 | 0.845 | 1.14 | 0.941 | 1.07 | 0.997
NCI-H1563 |  |  |  |  |  | 0.653 | 0.676 | 0.613 | 0.688 | 0.596 | 0.914 | 0.801 | 0.888 | 0.814 | 0.969 | 0.867 | 0.97 | 0.833 | 0.788 | 0.992
NCI-H1650 | 0.342 | 0.324 | 0.329 | 0.4 | 0.336 | 0.496 | 0.422 | 0.363 | 0.3 | 0.21 | 0.884 | 0.904 | 0.97 | 0.932 | 0.918 | 0.185 | 0.188 | 0.18 | 0.195 | 
COR-L 105 | 0.432 | 0.339 | 0.443 | 0.409 | 0.399 | 0.519 | 0.325 | 0.472 | 0.387 | 0.343 | 0.63 | 0.728 | 0.751 | 0.773 | 0.715 | 0.949 | 0.826 | 0.536 | 0.647 | 0.925
COR-L23 | 0.284 | 0.307 | 0.32 | 0.394 | 0.307 | 0.444 | 0.438 | 0.472 | 0.502 | 0.427 | 0.593 | 0.589 | 0.603 | 0.591 | 0.816 | 1.03 | 1.06 | 0.9 | 0.758 | 1.16
NCI-H596 |  |  |  |  |  | 0.78 | 0.635 | 0.735 | 0.871 | 0.631 | 0.986 | 0.966 | 0.929 | 1.02 | 0.965 | 1.17 | 1.21 |  | 0.994 | 0.964
NCI-H322M | 0.446 | 0.462 | 0.463 | 0.483 | 0.443 | 0.504 | 0.766 | 0.741 | 0.577 | 0.364 | 0.858 | 0.869 | 0.849 | 0.879 | 1.08 | 1.31 | 1.26 | 1.52 | 1.64 | 1.18
H3255 | 0.288 | 0.332 | 0.332 | 0.326 | 0.319 | 0.377 | 0.338 | 0.42 | 0.344 | 0.383 | 0.812 | 0.737 | 0.965 | 0.913 | 0.597 | 0.595 | 0.836 | 0.6 | 0.598 | 
PC-14 | 0.648 | 0.46 | 0.455 | 0.351 | 0.169 | 0.648 | 0.528 | 0.675 | 0.574 | 0.449 | 0.835 | 0.777 | 0.971 | 0.914 | 0.839 | 0.969 | 0.875 | 0.789 | 0.603 | 
A549 |  |  |  |  |  | 0.182 | 0.214 | 0.157 | 0.13 | 0.103 | 0.711 | 0.759 | 0.796 | 0.672 | 0.686 |  |  |  |  | 
NCI-H2342 | 0.503 | 0.557 | 0.528 | 0.521 | 0.494 | 0.756 | 0.663 | 0.548 | 0.508 | 0.475 |  |  |  |  |  |  |  |  |  | 
NCI-H1623 |  |  |  |  |  | 0.564 | 0.557 | 0.449 | 0.575 | 0.497 |  |  |  |  |  |  |  |  |  | 
